{"source": "ChEMBL document CHEMBL4411263", "about": "“Isolation of Tryptanthrin and Reassessment of Evidence for Its Isobaric Isostere Wrightiadione in Plants of the Wrightia Genus” (J Nat Prod, 2019)", "key": {"[1]": {"system": "Mycobacterium tuberculosis", "experiment": "Antitubercular activity against Mycobacterium tuberculosis H37Rv ATCC 27294 incubated for 1 week by MABA", "format": "functional", "conditions": "H37Rv ATCC 27294, 168 h"}, "Vero": {"system": "Vero", "experiment": "Cytotoxicity against African green monkey Vero cells by CellTiter 96 aqueous nonradioactive cell proliferation assay", "format": "cell-based", "conditions": "Chlorocebus sabaeus"}, "[2]": {"system": "Mycobacterium tuberculosis", "experiment": "Antitubercular activity against Mycobacterium tuberculosis H37Rv", "format": "functional"}}}
{"smiles": "O=C1c2ccccc2-n2c1nc1ccccc1c2=O", "note": "[TRYPTANTHRIN]", "values": [{"measurement": "MIC90", "setting": "[1]", "value": 7.59, "unit": "µg/mL"}, {"measurement": "IC50", "setting": "Vero", "value": "> 100", "unit": "µg/mL"}, {"measurement": "MIC", "setting": "[2]", "value": 1, "unit": "µg/mL"}]}
{"smiles": "CO[C@H]1/C=C/O[C@@]2(C)Oc3c(C)c(O)c4c(O)c(c(/C=N/N5CCN(C)CC5)c(O)c4c3C2=O)NC(=O)/C(C)=C\\C=C\\[C@H](C)[C@H](O)[C@@H](C)[C@@H](O)[C@@H](C)[C@H](OC(C)=O)[C@@H]1C", "note": "[RIFAMPIN]", "values": [{"measurement": "MIC90", "setting": "[1]", "value": 0.05, "unit": "µg/mL"}, {"measurement": "IC50", "setting": "Vero", "value": 97.4, "unit": "µg/mL"}]}
